Reference: PubChem BioAssay (NCI)
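Step 1: Grow cells in 96-well plates. Step 2: Expose to compound for 48 hours at 5 concentrations. Step 3: Interpolate endpoints linearly; if unreached, use highest concentration. TGI: concentration producing complete growth inhibition.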

Assays:
Assay in all cases: NCI-60 cell line screen, 48 h
[1] = tested on: SK-MEL-2 melanoma
[2] = tested on: PC-3 prostate
[3] = tested on: UACC-62 melanoma
[4] = tested on: SNB-75 CNS
[5] = tested on: HL-60(TB) leukemia
[6] = tested on: T-47D breast
[7] = tested on: UACC-257 melanoma
[8] = tested on: HS 578T breast
[9] = tested on: SK-MEL-28 melanoma
[10] = tested on: HT29 colon
[11] = tested on: NCI-H226 lung
[12] = tested on: A498 renal
[13] = tested on: MDA-MB-435
[14] = tested on: A549 NSCLC
[15] = tested on: KM12 colon
[16] = tested on: 786-0 renal
[17] = tested on: BT-549 breast
[18] = tested on: MCF7 breast
[19] = tested on: SF-268 CNS
[20] = tested on: HOP-62 NSCLC
[21] = tested on: SK-MEL-5 melanoma
[22] = tested on: TK-10 renal
[23] = tested on: HCC-2998 colon
[24] = tested on: MDA-MB-231 breast
[25] = tested on: OVCAR-3 ovarian
[26] = tested on: IGROV1 ovarian
[27] = tested on: OVCAR-8 ovarian
[28] = tested on: NCI-H23 lung
[29] = tested on: OVCAR-4 ovarian
[30] = tested on: M14 melanoma
[31] = tested on: HCT-116 colon
[32] = tested on: NCI/ADR-RES ovarian
[33] = tested on: OVCAR-5 ovarian
[34] = tested on: U251 CNS
[35] = tested on: CCRF-CEM leukemia
[36] = tested on: SNB-19 CNS
[37] = tested on: RPMI-8226 leukemia
[38] = tested on: SK-OV-3 ovarian
[39] = tested on: UO-31 renal
[40] = tested on: SF-295 CNS
[41] = tested on: ACHN renal
[42] = tested on: LOX IMVI melanoma
[43] = tested on: HCT-15 colon
[44] = tested on: K-562 leukemia
[45] = tested on: SN12C renal
[46] = tested on: SF-539 CNS
[47] = tested on: SR leukemia
[48] = tested on: MOLT-4 leukemia
[49] = tested on: NCI-H522 lung
[50] = tested on: DU-145 prostate
[51] = tested on: NCI-H460 lung
[52] = tested on: HOP-92 NSCLC
[53] = tested on: MALME-3M melanoma
[54] = tested on: COLO 205 colon
[55] = tested on: EKVX NSCLC
[56] = tested on: CAKI-1 renal
[57] = tested on: MDA-N
[58] = tested on: SW-620 colon

Compound: O=C1CNN=C(CSc2nc3ccc(I)cc3c(=O)n2Cc2ccccc2)N1
- TGI [1]: 34.7 µM
- TGI [2]: 79.6 µM
- TGI [3]: 32.6 µM
- TGI [4]: 35.8 µM
- TGI [5]: 4.03 µM
- TGI [6]: 43.5 µM
- TGI [7]: 70.7 µM
- TGI [8]: > 100 µM
- TGI [9]: 44.4 µM
- TGI [10]: > 100 µM
- TGI [11]: 42.4 µM
- TGI [12]: 94.1 µM
- TGI [13]: 97.6 µM
- TGI [14]: > 100 µM
- TGI [15]: 93.2 µM
- TGI [16]: > 100 µM
- TGI [17]: 86.3 µM
- TGI [18]: > 100 µM
- TGI [19]: 57.7 µM
- TGI [20]: > 100 µM
- TGI [21]: 30.6 µM
- TGI [22]: 78.3 µM
- TGI [23]: 81.7 µM
- TGI [24]: 38.9 µM
- TGI [25]: 45.1 µM
- TGI [26]: 55.6 µM
- TGI [27]: 94.7 µM
- TGI [28]: > 100 µM
- TGI [29]: > 100 µM
- TGI [30]: > 100 µM
- TGI [31]: 50.7 µM
- TGI [32]: 77.1 µM
- TGI [33]: > 100 µM
- TGI [34]: 52 µM
- TGI [35]: 50.5 µM
- TGI [36]: > 100 µM
- TGI [37]: 91.9 µM
- TGI [38]: > 100 µM
- TGI [39]: 4.37 µM
- TGI [40]: 59.7 µM
- TGI [41]: 31.6 µM
- TGI [42]: 33.4 µM
- TGI [43]: > 100 µM
- TGI [44]: > 100 µM
- TGI [45]: 34.3 µM
- TGI [46]: 58.3 µM
- TGI [47]: 92.3 µM
- TGI [48]: > 100 µM
- TGI [49]: 68.6 µM
- TGI [50]: 53.4 µM
- TGI [51]: > 100 µM
- TGI [52]: 72 µM
- TGI [53]: 54.2 µM
- TGI [54]: 28.4 µM
- TGI [55]: > 100 µM
- TGI [56]: 34.3 µM
- TGI [57]: 87.2 µM
- TGI [58]: > 100 µM
